This note sets out measurements from patent publication US12398110B2, “Second generation inhibitors of mitochondrial permeability transition pore with improved plasma stability” (Oregon Health & Science University, priority 2019, dated 2025).

Like-named read-outs stand apart in the source and are kept apart here.

Format in all cases: biochemical
The test system of assay [1] is mtPTP. The assay is described as follows: Ca2+ overload induced mitochondrial swelling in isolated mouse liver mitochondria. The conditions noted are these: for mtPTP inhibitory activity (in words): SAR discussion of Table 2. As for the experimental part:
We next sought to evaluate the effects of TR001-13 on mtPTP activity in vitro. This was performed on isolated mitochondria. In isolated mitochondria induction of mtPTP opening leads to mitochondrial swelling due to the oncotic pressure gradient created by matrix proteins >1.5 kDa that cannot diffuse through the open pore. In in vitro experiments, where isolated mitochondria are routinely suspended in sucrose-based isosmotic solutions, the change in mitochondrial size can be measured spectrometrically by detecting the decrease in light scattering at 540 nm.
(§1) Isolation of mitochondria. C57BL6/N mouse liver mitochondria were prepared from 2 to 6 month old male mice by standard differential centrifugation. Mice fed ad libitum were euthanized with CO2 followed cervical dislocation, their livers were existed and placed in a glass beaker containing ice-cold isolation buffer (IB: 0.25 m sucrose, 10 mm Tris-HCl, 0.1 mm EGTA-Tris, pH 7.4) supplemented with fatty acid free bovine serum albumin. Livers were then cut into small pieces with scissors, rinsed with ice-cold IB, and passed through a pre-chilled Potter homogenizer with Teflon pestle. The homogenate (˜30 mL per liver) was transferred to centrifuge tubes, and unbroken cells and nuclei were removed by centrifugation at 700 g for 10 min at 4° C. The supernatant containing mitochondria and other organelles was transferred to new tubes and centrifuged at 6000 g for 10 min at 4° C. The resulting supernatant was discarded and mitochondrial pellet was carefully suspended in ice-cold IB and spun at 9500 g for 5 min at 4° C. The pellet was suspended in IB to give a protein concentration of ˜60-80 mg/mL and stored on ice. Experiments were started immediately and completed within 5 h. Protein concentration was determined by the Biuret method.
Assessment of mitochondrial swelling. Changes in mitochondrial volume of isolated mouse liver mitochondria were followed in a 96-well clear assay plate at a final volume of 0.2 mL and 0.25 mg/mL mitochondrial protein. Absorbance was read for 30 min at 540 nm on a Tecan Infinite F200 plate reader. Activity of test compounds was addressed as follows: First, 0.1 mL of sucrose assay buffer (SAB: 0.250 m sucrose, 10 mm MOPS-Tris, 0.01 mm EGTA-Tris, 1.0 mm phosphoric acid-Tris, 10 mm glutamate and 5 mm malate, pH 7.4) supplemented with twice the CaCl2 concentration required to induce mitochondrial swelling (which was determined for each preparation of mitochondria, typically 50 μm) was dispensed to the assay plate. A set of wells also contained 2.0 mm EGTA (to prevent mitochondrial swelling). The test wells contained a range of concentrations (in 1:2 serial dilutions) of the compounds of interest or 2% DMSO. Experiments were started by the addition of 0.1 mL of mitochondrial suspension (0.5 mg/mL mitochondria in SAB without respiratory substrates) to the assay plates. EC50s±SE were determined with OriginPro software by applying Hill1 function fitting algorithm on average concentration response data of n=3-41 independent preparations.

The test system of assay [2] is mtPTP. The assay is described as follows: Ca2+ retention capacity (CRC) of isolated mouse liver mitochondria. As for the experimental part: CRC determines the Ca^2+ threshold required for mtPTP activation; inhibitors of mtPTP are expected to increase the Ca^2+ threshold required for mtPTP induction. Extramitochondrial Ca^2+ changes are detected using the membrane-impermeant Ca^2+ indicator, Calcium Green-5N.
as §1
Assessment of Ca^2+ retention capacity (CRC). CRC of isolated mouse liver mitochondria was assessed as follows: First, 0.1 mL of SAB were dispensed to a 96-well black assay plate in the presence of 2% DMSO (control wells) or varying concentrations of test compounds, in 1:2 serial dilutions. Then, 0.1 mL of 0.5 mg/mL mitochondria in SAB devoid of respiratory substrates, but supplemented with 1 μm Calcium Green-5N were added to all wells of the assay plate. A train of 10 μm CaCl2 pulses was added at 2 min intervals, and fluorescence intensity (ex/em 485/535 nm) was read on Tecan Infinite F200 plate reader.

Assay [3] concerns inner mitochondrial membrane potential. As to the kind of experiment: Rhodamine 123 (Rh123) uptake, mitochondrial membrane potential of isolated mouse liver mitochondria. The source says:
We next evaluated the mitochondrial toxicity of the new triazole analogs by testing their ability to interfere with accumulation of the membrane-permeant cationic fluorescent dye rhodamine 123 (Rh123). The mitochondrial uptake of positively charged Rh123 is driven by the inside negative IMM potential, which is built by the respiratory chain or maintained by ATP hydrolysis if certain conditions are met. […] It should be noted, however, that toxicity for these compounds only occurs at ˜10-1000-fold higher concentrations compared to mtPTP inhibition, providing a good therapeutic window.
Assessment of mitochondrial membrane potential. Mitochondrial membrane potential—to evaluate toxicity—of isolated mouse liver mitochondria was assessed based on fluorescence quenching of the cationic fluorescent dye Rh123 upon its accumulation into mitochondrial matrix due to inside negative membrane potential. Compounds that interfere with the build-up or maintenance of IMM potential would shift Rh123 fluorescence to higher values compared to DMSO treated samples. Uncoupler FCCP was used to account for nonspecific fluorescence. First, 0.1 mL of SAB was dispensed to a 96-well black assay plate. A set of wells also contained 0.8 μm FCCP (to prevent Rh123 uptake). The test wells contained a range of concentrations (in 1:2 serial dilutions) of the compounds of interest or 2% DMSO. Then, 0.1 mL of 0.5 mg/mL mitochondria in SAB devoid of respiratory substrates but supplemented with 0.8 μm Rh123 were added to all wells of the assay plate. Fluorescence intensity (ex/em 485/535 nm) was read on a Tecan Infinite F200 plate reader for 7 min and value at 5 min was considered for analysis. EC50s±SE were determined with OriginPro software by applying Hill1 function fitting algorithm on average concentration response data of n=3 independent preparations.

Where [4] appears, read: isolated mouse liver mitochondria, average ± SEM, n = 3-41, read-out: Mitochondrial Swelling EC50.
Setting [5] is: compound treated CRC to DMSO treated CRC0 ratio, 1.25 μM, average ± SEM, n = 3-25.
Where [6] appears, read: interference with Rh123 uptake to mitochondria, average ± SEM, n = 3, read-out: Rh123 uptake EC50.
The mark [7] stands for this setting: Mouse Liver Mitochondria (MLM), comparative examples, read-out: Swelling EC50.
Setting [8] is: Mouse Liver Mitochondria (MLM), comparative examples.
Setting [9] is: Mouse Liver Mitochondria (MLM), comparative examples, read-out: Rh123 EC50.

A word on the EC50: it is the concentration needed to bring the measured effect to its halfway point.

For `Cc1ccc(Cl)cc1NC(=O)c1cn(-c2ccc(Br)c(O)c2)nn1` [TR009, 1-(4-bromo-3-hydroxyphenyl)-N-(5-chloro-2-methylphenyl)-1H-1,2,3-triazole-4-carboxamide], the “mtPTP inhibitory activity (in words)” value with mtPTP [1] was “decreased activity”. For the same compound, the results for the EC50 (with mtPTP [1] (setting [4]); in assay [3] (setting [6])) were 0.475 ± 0.057 µM and over 40 µM, respectively. Moreover, the “CRC/CRC0 at 1.25 μM” value in the assay with mtPTP [2] (setting [5]) was found to be 2.4 ± 0.2.

Regarding `Cc1ccc(Cl)cc1NC(=O)c1cn(-c2ccc(C)c(O)c2Cl)nn1` [TR010, N-(5-chloro-2-methylphenyl)-1-(2-chloro-3-hydroxy-4-methylphenyl)-1H-1,2,3-triazole-4-carboxamide], the concentration for a half-maximal effect (EC50) in the assay with mtPTP [1] (setting [4]) was over 20 µM; in assay [3] (setting [6]), over 40 µM. In the assay with mtPTP [2] (setting [5]), the “CRC/CRC0 at 1.25 μM” value worked out at 1.1 ± 0.1.

As to `Cc1ccc(-n2cc(C(=O)Nc3cc(Cl)ccc3C)nn2)cc1O` [TR011, N-(5-chloro-2-methylphenyl)-1-(3-hydroxy-4-methylphenyl)-1H-1,2,3-triazole-4-carboxamide], the “mtPTP inhibitory activity (in words)” value in the assay on mtPTP [1] was “inactive”. For the same compound, the concentration for a half-maximal effect (EC50) in the assay with mtPTP [1] (setting [4]) is over 20 µM; in assay [3] (setting [6]), over 40 µM. Also, the “CRC/CRC0 at 1.25 μM” value in the assay on mtPTP [2] (setting [5]) was determined as 1.4 ± 0.1.

In the case of `Cc1ccc(Cl)cc1NC(=O)c1cn(-c2cccc(O)c2C)nn1` [TR012, N-(5-chloro-2-methylphenyl)-1-(3-hydroxy-2-methylphenyl)-1H-1,2,3-triazole-4-carboxamide], the “mtPTP inhibitory activity (in words)” value in the assay on mtPTP [1] was “inactive”. Also, the 50% effective concentration (EC50) with mtPTP [1] (setting [4]) was 10.6 ± 1.4 µM; in assay [3] (setting [6]), over 40 µM. In the assay on mtPTP [2] (setting [5]), the “CRC/CRC0 at 1.25 μM” value worked out at 1.4 ± 0.1.

In the case of `Cc1ccc(Cl)cc1NC(=O)c1cn(-c2cc(O)cc(C(F)(F)F)c2)nn1` [TR013, N-(5-chloro-2-methylphenyl)-1-(3-(trifluoromethyl)-5-hydroxyphenyl)-1H-1,2,3-triazole-4-carboxamide], the “mtPTP inhibitory activity (in words)” value with mtPTP [1] was “significantly reduced activity”. Moreover, the results for the 50% effective concentration (EC50) (with mtPTP [1] (setting [4]); in assay [3] (setting [6])) were 0.534 ± 0.047 µM and 6.2 ± 1.2 µM, respectively. In addition, in the assay on mtPTP [2] (setting [5]), the “CRC/CRC0 at 1.25 μM” value was 2.9 ± 0.1.

On to `Cc1ccc(Cl)cc1NC(=O)c1cc(-c2ccc(F)c(O)c2)on1` [drawing 45], for which the concentration for a half-maximal effect (EC50) was 0.002 µM with mtPTP [1] (setting [7]) and over 100 µM in assay [3] (setting [9]). Besides, the “CRC/CRC0 at 1.25 μM” value in the assay with mtPTP [2] (setting [8]) amounted to 13.5.

`Cc1ccc(Cl)cc1NC(=O)c1cn(-c2ccc(F)c(O)c2)nn1` [drawing 46]: the EC50 in the assay on mtPTP [1] (setting [7]) was 0.025 µM; in assay [3] (setting [9]) it was over 100 µM. Besides, the “CRC/CRC0 at 1.25 μM” value with mtPTP [2] (setting [8]) is 7.4.

Turning to `Cc1ccc(Cl)cc1NC(=O)c1cn(-c2ccc(F)c(O)c2)nn1` [drawing 47], the 50% effective concentration (EC50) stood at 4 µM in the assay with mtPTP [1] (setting [7]) and 10 µM in assay [3] (setting [9]). In addition, the “CRC/CRC0 at 1.25 μM” value in the assay with mtPTP [2] (setting [8]) is 1.

Consider `Cc1ccc(Cl)cc1NC(=O)c1cn(-c2cccc(O)c2F)nn1` [drawing 51], for which the values for the 50% effective concentration (EC50) (in the assay on mtPTP [1] (setting [7]); in assay [3] (setting [9])) were 0.152 µM and 29 µM, respectively. For the same compound, in the assay with mtPTP [2] (setting [8]), the “CRC/CRC0 at 1.25 μM” value was 7.8.

For `Cc1ccc(Cl)cc1NC(=O)c1cn(-c2cc(O)cc(F)c2)nn1` [drawing 52], the EC50 with mtPTP [1] (setting [7]) worked out at 0.01 µM; in assay [3] (setting [9]), 14 µM. In addition, in the assay on mtPTP [2] (setting [8]), the “CRC/CRC0 at 1.25 μM” value is given as 13.09.

Regarding `Cc1ccc(Cl)cc1NC(=O)c1cn(-c2cc(O)ccc2F)nn1` [drawing 53], the 50% effective concentration (EC50) with mtPTP [1] (setting [7]) is over 20 µM; in assay [3] (setting [9]), over 40 µM. The “CRC/CRC0 at 1.25 μM” value in the assay on mtPTP [2] (setting [8]) is recorded as 1.4.

As to `Cc1ccc(Cl)cc1NC(=O)c1cn(-c2ccc(F)c(O)c2F)nn1` [drawing 58], the EC50 is 0.782 µM in the assay on mtPTP [1] (setting [7]) and over 40 µM in assay [3] (setting [9]). The “CRC/CRC0 at 1.25 μM” value in the assay with mtPTP [2] (setting [8]) is reported as 2.6.

Take `Cc1ccc(Cl)cc1NC(=O)c1cn(-c2ccc(Cl)c(O)c2)nn1` [drawing 59]: the half-maximal effective concentration (EC50) with mtPTP [1] (setting [7]) was 0.135 µM; in assay [3] (setting [9]), over 40 µM. For the same compound, in the assay with mtPTP [2] (setting [8]), the “CRC/CRC0 at 1.25 μM” value amounted to 3.9.

In the case of `Cc1ccc(Cl)cc1NC(=O)c1cn(-c2ccc(Br)c(O)c2)nn1` [drawing 60], the EC50 is 0.475 µM in the assay on mtPTP [1] (setting [7]) and over 40 µM in assay [3] (setting [9]). The “CRC/CRC0 at 1.25 μM” value with mtPTP [2] (setting [8]) was 2.4.

`Cc1ccc(Cl)cc1NC(=O)c1cn(-c2ccc(C)c(O)c2Cl)nn1` [drawing 66]: the EC50 in the assay with mtPTP [1] (setting [7]) was over 20 µM; in assay [3] (setting [9]) it was over 40 µM. The “CRC/CRC0 at 1.25 μM” value with mtPTP [2] (setting [8]) was 1.
